From patent US12473304B2, “Heterocyclic PAD4 inhibitors” (BRISTOL-MYERS SQUIBB COMPANY, priority 2020, dated 2025) come the findings set out here.

pIC50: −log10 of the molar value.

Sequence of human PAD4 (hPAD4) (Q9UM07 whole entry): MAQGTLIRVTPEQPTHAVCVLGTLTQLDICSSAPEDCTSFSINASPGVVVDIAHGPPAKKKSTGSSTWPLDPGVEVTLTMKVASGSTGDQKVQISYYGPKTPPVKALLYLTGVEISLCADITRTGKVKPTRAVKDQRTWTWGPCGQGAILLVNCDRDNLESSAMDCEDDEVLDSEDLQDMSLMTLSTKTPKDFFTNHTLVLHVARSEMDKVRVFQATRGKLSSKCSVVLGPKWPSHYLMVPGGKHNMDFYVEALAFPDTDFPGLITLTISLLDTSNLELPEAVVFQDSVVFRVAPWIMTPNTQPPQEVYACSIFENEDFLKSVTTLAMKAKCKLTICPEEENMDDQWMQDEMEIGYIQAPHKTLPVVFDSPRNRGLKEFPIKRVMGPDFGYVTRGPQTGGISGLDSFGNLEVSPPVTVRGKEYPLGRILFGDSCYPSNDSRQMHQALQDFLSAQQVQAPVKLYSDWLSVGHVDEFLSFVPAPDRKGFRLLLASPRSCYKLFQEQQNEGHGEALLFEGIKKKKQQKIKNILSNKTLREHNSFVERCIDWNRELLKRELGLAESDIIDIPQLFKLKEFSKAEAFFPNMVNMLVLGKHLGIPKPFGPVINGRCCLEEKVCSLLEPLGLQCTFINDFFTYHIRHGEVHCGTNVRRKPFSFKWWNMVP

This assay has as its target human PAD4 (hPAD4) (Homo sapiens (Human), UniProt Q9UM07). The experiment in a line: RFMS Human PAD4 Functional Assay 1. The assay is classed as biochemical. Conditions: RFMS assay 1; 5 nM hPAD4, 250 μM BAEE substrate, 50 μM calcium, 37° C. In short, it runs like this:
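Citrullination product read by RapidFire triple-quad MRM against a modified-citrulline internal standard, after TCA stop and 30 min phenyl glyoxal step at 37 °C. Reaction: 250 μM BAEE, 5 nM human PAD4, 90 min at 37 °C, pH 7.5 HEPES buffer with 50 μM calcium and 5 μM TPEN, following 30 min compound–enzyme preincubation (max 50 μM).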
What is called pIC50 is −log10 of the IC50, conventionally taken in molar units. Turning to `Cc1c(-c2cc3ccc(N4CCC(N(C)S(C)(=O)=O)CC4)cc3n2CC2CC2)nn2cc(C(=O)N3C[C@H](N)C[C@@H](F)C3)ccc12` [Example 354, N-[1-(2-{6-[(3R,5R)-3-Amino-5-fluoropiperidine-1-carbonyl]-3-methylpyrazolo[1,5-a]pyridin-2-yl}-1-(cyclopropylmethyl)-1H-indol-6-yl)piperidin-4-yl]-N-methylmethanesulfonamide], the pIC50 is 6.82.
Next, `Cc1c(-c2cc3ccc(N4CCC(C(=O)N5CCCC5)CC4)cc3n2CC2CC2)nn2cc(C(=O)N3C[C@H](N)C[C@@H](F)C3)ccc12` [Example 355, (3R,5R)-1-{2-[1-(Cyclopropylmethyl)-6-[4-(pyrrolidine-1-carbonyl)piperidin-1-yl]-1H-indol-2-yl]-3-methylpyrazolo[1,5-a]pyridine-6-carbonyl}-5-fluoropiperidin-3-amine]: 7.70.
Next, `Cc1c(-c2cc3ccc(N4CCC(N5CCCC5=O)CC4)cc3n2CC2CC2)nn2cc(C(=O)N3C[C@H](N)C[C@@H](F)C3)ccc12` [Example 356, 1-[1-(2-{6-[(3R,5R)-3-Amino-5-fluoropiperidine-1-carbonyl]-3-methylpyrazolo[1,5-a]pyridin-2-yl}-1-(cyclopropylmethyl)-1H-indol-6-yl)piperidin-4-yl]pyrrolidin-2-one]: 5.56.
`Cc1c(-c2cc3ccc(N4CCC(N5CCOC5=O)CC4)cc3n2CC2CC2)nn2cc(C(=O)N3C[C@H](N)C[C@@H](F)C3)ccc12` [Example 357, 3-[1-(2-{6-[(3R,5R)-3-Amino-5-fluoropiperidine-1-carbonyl]-3-methylpyrazolo[1,5-a]pyridin-2-yl}-1-(cyclopropylmethyl)-1H-indol-6-yl)piperidin-4-yl]-l,3-oxazolidin-2-one]: the pIC50 was 7.30.
Next, `COC(=O)N(C)C1CCN(c2ccc3cc(-c4nn5cc(C(=O)N6CCC[C@@H](N)C6)ccc5c4C)n(CC4CC4)c3c2)CC1` [Example 358, Methyl N-[1-(2-{6-[(3R)-3-aminopiperidine-1-carbonyl]-3-methylpyrazolo[1,5-a]pyridin-2-yl}-1-(cyclopropylmethyl)-1H-indol-6-yl)piperidin-4-yl]-N-methylcarbamate]: 6.38; `CC(=O)N(C)C1CCN(c2ccc3cc(-c4nn5cc(C(=O)N6CCC[C@@H](N)C6)ccc5c4C)n(CC4CC4)c3c2)CC1` [Example 359, N-[1-(2-{6-[(3R)-3-Aminopiperidine-1-carbonyl]-3-methylpyrazolo[1,5-a]pyridin-2-yl}-1-(cyclopropylmethyl)-1H-indol-6-yl)piperidin-4-yl]-N-methyl acetamide]: 6.62; `Cc1c(-c2cc3ccc(N4CCC(N(C)S(C)(=O)=O)CC4)cc3n2CC2CC2)nn2cc(C(=O)N3CCC[C@@H](N)C3)ccc12` [Example 360, N-[1-(2-{6-[(3R)-3-Aminopiperidine-1-carbonyl]-3-methylpyrazolo[1,5-a]pyridin-2-yl}-1-(cyclopropylmethyl)-1H-indol-6-yl)piperidin-4-yl]-N-methylmethanesulfonamide]: 6.35.
As to `Cc1c(-c2cc3ccc(N4CCC(C(=O)N5CCCC5)CC4)cc3n2CC2CC2)nn2cc(C(=O)N3CCC[C@@H](N)C3)ccc12` [Example 361, (3R)-1-{2-[1-(Cyclopropylmethyl)-6-[4-(pyrrolidine-1-carbonyl)piperidin-1-yl]-1H-indol-2-yl]-3-methylpyrazolo[1,5-a]pyridine-6-carbonyl}piperidin-3-amine], the negative logarithm of the IC50 (pIC50) was 6.52.
With `Cc1c(-c2cc3ccc(N4CCC(N(C)S(C)(=O)=O)CC4)cc3n2CC2CC2)nn2cc(C(=O)N3CCC[C@@H](N)C3)ccc12` [Example 362, N-[1-(2-{6-[(3R)-3-Aminopiperidine-1-carbonyl]-3-methylpyrazolo[1,5-a]pyridin-2-yl}-1-(cyclopropylmethyl)-1H-indol-6-yl)piperidin-4-yl]-N-methylmethanesulfonamide] the figure was 6.37.
Next, `Cc1c(-c2cc3ccc(N4CCC(N5CCCC5=O)CC4)cc3n2CC2CC2)nn2cc(C(=O)N3CCC[C@@H](N)C3)ccc12` [Example 363, 1-[1-(2-{6-[(3R)-3-Aminopiperidine-1-carbonyl]-3-methylpyrazolo[1,5-a]pyridin-2-yl}-1-(cyclopropylmethyl)-1H-indol-6-yl)piperidin-4-yl]pyrrolidin-2-one]: 5.64; `Cc1c(-c2cc3ccc(N4CCC(N5CCOC5=O)CC4)cc3n2CC2CC2)nn2cc(C(=O)N3CCC[C@@H](N)C3)ccc12` [Example 364, 3-[1-(2-{6-[(3R)-3-Aminopiperidine-1-carbonyl]-3-methylpyrazolo[1,5-a]pyridin-2-yl}-1-(cyclopropylmethyl)-1H-indol-6-yl)piperidin-4-yl]-1,3-oxazolidin-2-one]: 5.96.
For `Cc1c(-c2cc3ccc(N4CCC(n5cccn5)CC4)cc3n2CC2CC2)nn2cc(C(=O)N3CCC[C@@H](N)C3)ccc12` [Example 365, (3R)-1-{2-[1-(Cyclopropylmethyl)-6-[4-(1H-pyrazol-1-yl)piperidin-1-yl]-1H-indol-2-yl]-3-methylpyrazolo[1,5-a]pyridine-6-carbonyl}piperidin-3-amine], the pIC50 is 6.14.
Next, `Cc1c(-c2cc3ccc(N4CC(N(C)S(C)(=O)=O)C4)cc3n2CC2CC2)nn2cc(C(=O)N3CCC[C@@H](N)C3)ccc12` [Example 366, N-[1-(2-{6-[(3R)-3-Aminopiperidine-1-carbonyl]-3-methylpyrazolo[1,5-a]pyridin-2-yl}-1-(cyclopropylmethyl)-1H-indol-6-yl)azetidin-3-yl]-N-methylmethanesulfonamide]: 6.06.
With `Cc1c(-c2cc3ccc(-c4cccc(CNS(C)(=O)=O)c4)cc3n2CC2CC2)nn2cc(C(=O)N3C[C@H](N)C[C@@H](F)C3)ccc12` [Example 367, N-{[3-(2-{6-[(3R,5R)-3-Amino-5-fluoropiperidine-1-carbonyl]-3-methylpyrazolo[1,5-a]pyridin-2-yl}-1-(cyclopropylmethyl)-1H-indol-6-yl)phenyl]methyl}methanesulfonamide] the figure was 6.00.
With `Cc1c(-c2cc3ccc(-c4cccc(-c5nn[nH]n5)c4)cc3n2CC2CC2)nn2cc(C(=O)N3C[C@H](N)C[C@@H](F)C3)ccc12` [Example 368, (3R,5R)-1-{2-[1-(Cyclopropylmethyl)-6-[3-(2H-1,2,3,4-tetrazol-5-yl)phenyl]-1H-indol-2-yl]-3-methylpyrazolo[1,5-a]pyridine-6-carbonyl}-5-fluoropiperidin-3-amine] the figure was 5.55; with `Cc1c(-c2cc3ccc(-c4ccc(NS(C)(=O)=O)cc4)cc3n2CC2CC2)nn2cc(C(=O)N3C[C@H](N)C[C@@H](F)C3)ccc12` [Example 369, N-[4-(2-{6-[(3R,5R)-3-Amino-5-fluoropiperidine-1-carbonyl]-3-methylpyrazolo[1,5-a]pyridin-2-yl}-1-(cyclopropylmethyl)-1H-indol-6-yl)phenyl]methanesulfonamide], 7.70; with `Cc1c(-c2cc3ccc(-c4ccc(CNS(C)(=O)=O)cc4)cc3n2CC2CC2)nn2cc(C(=O)N3C[C@H](N)C[C@@H](F)C3)ccc12` [Example 370, N-{[4-(2-{6-[(3R,5R)-3-Amino-5-fluoropiperidine-1-carbonyl]-3-methylpyrazolo[1,5-a]pyridin-2-yl}-1-(cyclopropylmethyl)-1H-indol-6-yl)phenyl]methyl}methanesulfonamide], 6.89.
